23 molecules from patent US10087178B2, “Substituted spiropyrido[1,2-a]pyrazine derivative and medicinal use thereof as HIV integrase inhibitor” (priority 2012, dated 2018) can be followed below.

Molecules are shown by their SMILES. Structures can show the parent of a compound that is named as a salt. Where two headings read alike, the source gives them in different places.

The subject of this assay is HIV-1 NL4-3 strain. In words: Evaluation of antiviral activity: acute infection system of MT-4 cell with HIV-1 NL4-3 strain. The assay is classed as cell-based.
The mark [1] stands for this setting: Human immunodeficiency virus 1, NL43, MT4, 120 h, MT-4 cells infected with HIV-1 NL4-3 strain (MOI 0.05), cultured 5 days, Cell Titer-Glo, read-out: antiviral activity (EC50).
[2] abbreviates: Human immunodeficiency virus 1, NL43, MT4, 120 h, read-out: antiviral activity (EC50), MT-4 cells infected with HIV-1 NL4-3 strain (MOI 0.05), cultured 5 days, Cell Titer-Glo.
The mark [3] stands for this setting: Human immunodeficiency virus 1, NL43, MT4, 120 h, antiviral activity, MT-4 cells infected with HIV-1 NL4-3 (MOI 0.05), 5 days culture, Cell Titer-Glo luminescence, read-out: EC50.
The mark [4] stands for this setting: MT-4 cells infected with HIV-1 NL4-3 strain (MOI 0.05), cultured 5 days, Cell Titer-Glo, read-out: antiviral activity (EC50).

Regarding `CO[C@H]1C[C@@]2(Cn3cc(C(=O)NCc4cccc(Cl)c4F)c(=O)c(O)c3C(=O)N2C)C1` [Example S62, N-(3-chloro-2-fluorobenzyl)-9′-hydroxy-trans-3-methoxy-2′-methyl-1′,8′-dioxo-1′,2′,4′,8′-tetrahydrospiro[cyclobutane-1,3′-pyrido[1,2-a]pyrazine]-7′-carboxamide hydrochloride], under setting [1], the EC50 was 4.6 nM.
Consider `COC[C@H]1C[C@@]12CN(C)C(=O)c1c(O)c(=O)c(C(=O)NCc3cc(OC(C)C)cc(Cl)c3F)cn12` [Example T26, (1S,2S)-N-(3-chloro-2-fluoro-5-isopropoxybenzyl)-9′-hydroxy-2-(methoxymethyl)-2′-methyl-1′,8′-dioxo-1′,2′,3′,8′-tetrahydrospiro[cyclopropane-1,4′-pyrido[1,2-a]pyrazine]-7′-carboxamide hydrochloride], for which the EC50 under setting [2] amounted to 15 nM.
Turning to `COC[C@@H]1C[C@@]12CN(C(C)C)C(=O)c1c(O)c(=O)c(C(=O)NCc3ccc(F)cc3F)cn12` [Example 16, (1S,2R)—N-(2,4-difluorobenzyl)-9′-hydroxy-2′-isopropyl-2-(methoxymethyl)-1′,8′-dioxo-1′,2′,3′,8′-tetrahydrospiro[cyclopropane-1,4′-pyrido[1,2-a]pyrazine]-7′-carboxamide], the EC50 under setting [3] was determined as 6.1 nM.
`CCO[C@H]1C[C@]2(CN(C)C(=O)c3c(O)c(=O)c(C(=O)NCc4ccc(F)cc4F)cn32)C1` [Example S51, N-(2,4-difluorobenzyl)-cis-3-ethoxy-9′-hydroxy-2′-methyl-1′,8′-dioxo-1′,2′,3′,8′-tetrahydrospiro[cyclobutane-1,4′-pyrido[1,2-a]pyrazine]-7′-carboxamide hydrochloride]: under setting [1], the EC50 is 2.4 nM.
`CCO[C@H]1C[C@@]2(CN(C)C(=O)c3c(O)c(=O)c(C(=O)NCc4cccc(Cl)c4F)cn32)C1` [Example S28, N-(3-chloro-2-fluorobenzyl)- trans-3-ethoxy-9′-hydroxy-2′-methyl-1′,8′-dioxo-1′,2′,3′,8′-tetrahydrospiro[cyclobutane-1,4′-pyrido[1,2-a]pyrazine]-7′-carboxamide hydrochloride]: the EC50 under setting [1] turned out to be 3.6 nM.
Same read-out and setting: in the case of `CCN1C[C@@]2(C[C@@H]2COC)n2cc(C(=O)NCc3cccc(Cl)c3F)c(=O)c(O)c2C1=O` [Example T19, (1S,2S)-N-(3-chloro-2-fluorobenzyl)-2′-ethyl-9′-hydroxy-2-(methoxymethyl)-1′,8′-dioxo-1′,2′,3′,8′-tetrahydrospiro[cyclopropane-1,4′-pyrido[1,2-a]pyrazine]-7′-carboxamide] it was 3.8 nM.
For `CCN1C[C@]2(C[C@H](OCc3ccccc3)C2)n2cc(C(=O)NCc3ccc(F)cc3F)c(=O)c(O)c2C1=O` [Example S16, cis-3-(benzyloxy)-N-(2,4-difluorobenzyl)-2′-ethyl-9′-hydroxy-1′,8′-dioxo-1′,2′,3′,8′-tetrahydrospiro[cyclobutane-1,4′-pyrido[1,2-a]pyrazine]-7′-carboxamide hydrochloride], the EC50 under setting [3] came to 7.8 nM.
`COC[C@H]1C[C@@]12CN(C)C(=O)c1c(O)c(=O)c(C(=O)NCc3ccc(F)cc3F)cn12` [Example T3, (1S,2S)-N-(2,4-difluorobenzyl)-9′-hydroxy-2-(methoxymethyl)-2′-methyl-1′,8′-dioxo-1′,2′,3′,8′-tetrahydrospiro[cyclopropane-1,4′-pyrido[1,2-a]pyrazine]-7′-carboxamide hydrochloride]: the EC50 under setting [2] was found to be 4.5 nM.
`CCN1C[C@]2(C[C@@H](OC)C2)n2cc(C(=O)NCc3ccc(F)cc3F)c(=O)c(O)c2C1=O` [Example S19, N-(2,4-difluorobenzyl)-2′-ethyl-9′-hydroxy-trans-3-methoxy-1′,8′-dioxo-1′,2′,3′,8′-tetrahydrospiro[cyclobutane-1,4′-pyrido[1,2-a]pyrazine]-7′-carboxamide hydrochloride]: the EC50 under setting [3] is 4.8 nM.
Take `COC[C@H]1C[C@]2(CN(C)C(=O)c3c(O)c(=O)c(C(=O)NCc4cccc(Cl)c4F)cn32)C1` [Example 28, Monosodium 7′-(3-chloro-2-fluorobenzylcarbamoyl)-cis-3-(methoxymethyl)-2′-methyl-1′,8′-dioxo-1′,2′,3′,8′-tetrahydrospiro[cyclobutane-1,4′-pyrido[1,2-a]pyrazin]-9′-olate]: the EC50 under setting [4] was 2.2 nM.
Regarding `CCC(=O)Oc1c2n(cc(C(=O)NCc3cccc(Cl)c3F)c1=O)[C@]1(CN(C)C2=O)C[C@H](COC)C1` [Example S67, 7′-(3-chloro-2-fluorobenzylcarbamoyl)-cis-3-(methoxymethyl)-2′-methyl-1′,8′-dioxo-1′,2′,3′,8′-tetrahydrospiro[cyclobutane-1,4′-pyrido[1,2-a]pyrazin]-9′-yl propionate], the EC50 under setting [1] amounted to 0.9 nM.
For `CN1C[C@]2(C[C@H](O)C2)n2cc(C(=O)NCc3cccc(Cl)c3F)c(=O)c(O)c2C1=O` [Example S27, N-(3-chloro-2-fluorobenzyl)- cis-3,9′-dihydroxy-2′-methyl-1′,8′-dioxo-1′,2′,3′,8′-tetrahydrospiro[cyclobutane-1,4′-pyrido[1,2-a]pyrazine]-7′-carboxamide hydrochloride], the concentration for a half-maximal effect (EC50) under setting [1] was determined as 14 nM.
As for `CO[C@H]1C[C@]2(CN(C)C(=O)c3c(O)c(=O)c(C(=O)NCc4cccc(Cl)c4F)cn32)C1` [Example 24, Monosodium 7′-(3-chloro-2-fluorobenzylcarbamoyl)-cis-3-methoxy-2′-methyl-1′,8′-dioxo-1′,2′,3′,8′-tetrahydrospiro[cyclobutane-1,4′-pyrido[1,2-a]pyrazin]-9′-olate], under setting [4], the EC50 was determined as 0.9 nM.
As for `CCO[C@H]1C[C@]2(CN(CC)C(=O)c3c(O)c(=O)c(C(=O)NCc4ccc(F)cc4F)cn32)C1` [Example S21, N-(2,4-difluorobenzyl)-cis-3-ethoxy-2′-ethyl-9′-hydroxy-1′,8′-dioxo-1′,2′,3′,8′-tetrahydrospiro[cyclobutane-1,4′-pyrido[1,2-a]pyrazine]-7′-carboxamide hydrochloride], the EC50 under setting [3] came to 3.8 nM.
Consider `CO[C@H]1C[C@]2(CN(C)C(=O)c3c(O)c(=O)c(C(=O)NCc4cccc(Cl)c4F)cn32)C1` [Example 23, N-(3-chloro-2-fluorobenzyl)-9′-hydroxy-cis-3-methoxy-2′-methyl-1′,8′-dioxo-1′,2′,3′,8′-tetrahydrospiro[cyclobutane-1,4′-pyrido[, 2-a]pyrazine]-7′-carboxamide], for which, under setting [1], the EC50 was determined as 1.6 nM.
Take `CO[C@H]1C[C@]2(CN(C(C)C)C(=O)c3c(O)c(=O)c(C(=O)NCc4ccc(F)cc4F)cn32)C1` [Example S6, N-(2,4-difluorobenzyl)-9′-hydroxy-2′-isopropyl-cis-3-methoxy-1′,8′-dioxo-1′,2′,3′,8′-tetrahydrospiro[cyclobutane-1,4′-pyrido[1,2-a]pyrazine]-7′-carboxamide hydrochloride]: under setting [3], the EC50 is 3.7 nM.
Take `COC[C@H]1C[C@@]12CN(C)C(=O)c1c(O)c(=O)c(C(=O)NCc3ccc(OC)c(Cl)c3F)cn12` [Example T22, (1S,2S)-N-(3-chloro-2-fluoro-4-methoxybenzyl)-9′-hydroxy-2-(methoxymethyl)-2′-methyl-1′,8′-dioxo-1′,2′,3′,8′-tetrahydrospiro[cyclopropane-1,4′-pyrido[1,2-a]pyrazine]-7′-carboxamide hydrochloride]: the EC50 under setting [2] is 4.9 nM.
Regarding `CO[C@H]1C[C@@]2(Cn3cc(C(=O)NCc4ccc(F)cc4F)c(=O)c(O)c3C(=O)N2C(C)C)C1` [Example S52, N-(2,4-difluorobenzyl)-9′-hydroxy-2′-isopropyl-trans-3-methoxy-1′,8′-dioxo-1′,2′,4′,8′-tetrahydrospiro[cyclobutane-1,3′-pyrido[1,2-a]pyrazine]-7′-carboxamide hydrochloride], the EC50 under setting [1] stood at 3.5 nM.
`CN1C[C@]2(C[C@@H](CO)C2)n2cc(C(=O)NCc3cccc(Cl)c3F)c(=O)c(O)c2C1=O` [Example S36, N-(3-chloro-2-fluorobenzyl)-9′-hydroxy-trans-3-(hydroxymethyl)-2′-methyl-1′,8′-dioxo-1′,2′,3′,8′-tetrahydrospiro[cyclobutane-1,4′-pyrido[1,2-a]pyrazine]-7′-carboxamide]: the EC50 under setting [1] came to 15 nM.
As to `CCN1C[C@]2(C[C@H]2CO)n2cc(C(=O)NCc3cccc(Cl)c3F)c(=O)c(O)c2C1=O` [Example T17, (1R,2R)-N-(3-chloro-2-fluorobenzyl)-2′-ethyl-9′-hydroxy-2-(hydroxymethyl)-1′,8′-dioxo-1′,2′,3′,8′-tetrahydrospiro[cyclopropane-1,4′-pyrido[1,2-a]pyrazine]-7′-carboxamide hydrochloride], the EC50 under setting [2] is 5.7 nM.
Regarding `COC[C@H]1C[C@]2(CN(C)C(=O)c3c(OC(=O)/C=C/C(=O)O)c(=O)c(C(=O)NCc4cccc(Cl)c4F)cn32)C1` [Example 39, (E)-4-[7′-(3-chloro-2-fluorobenzylcarbamoyl)-cis-3-(methoxymethyl)-2′-methyl-1′,8′-dioxo-1′,2′,3′,8′-tetrahydrospiro[cyclobutane-1,4′-pyrido[1,2-a]pyrazin]-9′-yloxy]-4-oxobut-2-enoic acid], where the note is “Human immunodeficiency virus 1, NL43, MT4, 120 h, read-out: antiviral activity (EC50)”, the EC50 stood at 1.4 nM.
For the molecule `CCN1C[C@]2(C[C@@H](O)C2)n2cc(C(=O)NCc3ccc(F)cc3F)c(=O)c(O)c2C1=O` [Example S17, N-(2,4-difluorobenzyl)-2′-ethyl-trans-3,9′-dihydroxy-1′,8′-dioxo-1′,2′,3′,8′-tetrahydrospiro[cyclobutane-1,4′-pyrido[1,2-a]pyrazine]-7′-carboxamide hydrobromide], the EC50 under setting [3] turned out to be 20 nM.
As to `CCN1C[C@@]2(C[C@@H]2CO)n2cc(C(=O)NCc3ccc(F)cc3F)c(=O)c(O)c2C1=O` [Example T1, (1S,2S)-N-(2,4-difluorobenzyl)-2′-ethyl-9′-hydroxy-2-(hydroxymethyl)-1′,8′-dioxo-1′,2′,3′,8′-tetrahydrospiro[cyclopropane-1,4′-pyrido[1,2-a]pyrazine]-7′-carboxamide hydrochloride], the EC50 under setting [2] came to 18 nM.

One may read the EC50 as the concentration giving half of the maximal effect.
